In this assay the target is T1, ZAP-70 (Homo sapiens, UniProt P43403).
T1 sequence (P43403 1-619): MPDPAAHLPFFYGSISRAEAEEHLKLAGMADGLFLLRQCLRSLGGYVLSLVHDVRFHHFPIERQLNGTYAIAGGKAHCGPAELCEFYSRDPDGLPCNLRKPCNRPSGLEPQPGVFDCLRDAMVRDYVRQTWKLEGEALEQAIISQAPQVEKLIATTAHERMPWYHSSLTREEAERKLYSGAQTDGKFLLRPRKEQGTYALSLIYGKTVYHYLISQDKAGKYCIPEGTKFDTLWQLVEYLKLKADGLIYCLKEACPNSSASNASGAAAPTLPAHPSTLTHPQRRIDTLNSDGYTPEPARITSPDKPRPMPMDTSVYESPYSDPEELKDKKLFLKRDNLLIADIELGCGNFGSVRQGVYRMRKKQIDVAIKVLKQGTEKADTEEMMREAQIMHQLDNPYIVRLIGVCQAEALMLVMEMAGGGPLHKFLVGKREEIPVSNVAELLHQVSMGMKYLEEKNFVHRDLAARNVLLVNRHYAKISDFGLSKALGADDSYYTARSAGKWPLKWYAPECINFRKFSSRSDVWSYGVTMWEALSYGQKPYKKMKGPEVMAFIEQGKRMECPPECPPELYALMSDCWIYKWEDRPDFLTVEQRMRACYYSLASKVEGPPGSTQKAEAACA
Description: DELFIA assay (ZAP-70 kinase, phosphorylation of biotinylated poly(glu,tyr)). The class given is biochemical. To be noted: ZAP-70 DELFIA, read-out: Activity (IC50 in vitro). The gist of the method:
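3.1 nM ZAP-70 pre-incubated 10 min at room temperature with compound ([…]) and 62.5 nM biotinylated poly(glu,tyr) in 62.5 mM Mops pH 7.0, 12.5 mM MgCl2, 12.5% glycerol, 6.25% DMSO (pre-incubation concentrations); ATP added from 5 mM stock, 30 min reaction, EDTA stop. Phosphorylation read by DELFIA europium anti-phosphotyrosine fluorescence (340/615).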

Molecules are shown by their SMILES. Read-outs that look alike come from different tables or passages of the source.

`CCCCCCc1cc(C(=O)N2CCC[C@H]2CN2CCCC2)cc(N(C)Cc2ccccc2)n1` [Compound 277]: the IC50 (class symbols) is over 10 µM. Still for that read-out and setting: with `CN(Cc1ccccc1)c1cc(C(=O)N2CCC[C@H]2CN2CCCC2)cc(/C=C/c2ccc(C(F)(F)F)cc2)n1` [Compound 278] the figure was over 10 µM; with `CN(Cc1ccccc1)c1cc(C(=O)N2CCC[C@H]2CN2CCCC2)cc(/C=C/c2ccccc2)n1` [Compound 279], over 10 µM; with `O=C(c1cc(NCc2ccc(C(F)(F)F)cc2)nc2ccc(-c3ccc4c(c3)OCC4)cc12)N1CCC[C@H]1CN1CCCC1` [Compound 280], under 1 µM.

On to `O=C(c1cc(NCc2ccc(C(F)(F)F)cc2)nc2ccc(C#Cc3ccccc3)cc12)N1CCC[C@H]1CN1CCCC1` [Compound 281], for which, where the note is “class symbols”, the IC50 was under 1 µM. The same measure, in the same setting: with `COc1ccc(C#Cc2ccc3nc(NCc4ccc(C(F)(F)F)cc4)cc(C(=O)N4CCC[C@H]4CN4CCCC4)c3c2)cc1` [Compound 282] the figure was 1 to 10 µM. Regarding `O=C(c1cc(NCc2ccc(C(F)(F)F)cc2)nc2ccc(C#Cc3ccc(Cl)cc3)cc12)N1CCC[C@H]1CN1CCCC1` [Compound 283], the IC50 (class symbols) was under 1 µM.

Consider `O=C(c1cc(NCc2ccc(C(F)(F)F)cc2)nc2ccc(C#Cc3cccc(C(F)(F)F)c3)cc12)N1CCC[C@H]1CN1CCCC1` [Compound 284], for which the IC50 (class symbols) was under 1 µM. The same measure, in the same setting: under `O=C(c1cc(NCc2ccc(C(F)(F)F)cc2)nc2ccc(CCc3ccccc3)cc12)N1CCC[C@H]1CN1CCCC1` [Compound 285] stands 1 to 10 µM; under `O=C(c1cc(NCc2ccc(C(F)(F)F)cc2)nc2ccc(/C=C/c3ccc(Cl)cc3)cc12)N1CCC[C@H]1CN1CCCC1` [Compound 286], under 1 µM; under `O=C(c1cc(NCc2ccc(C(F)(F)F)cc2)nc2ccc(CCc3ccc(Cl)cc3)cc12)N1CCC[C@H]1CN1CCCC1` [Compound 287], 1 to 10 µM. Still for that read-out and setting: under `O=C(c1cc(NCc2ccc(C(F)(F)F)cc2)nc2ccc(/C=C/c3cccc(C(F)(F)F)c3)cc12)N1CCC[C@H]1CN1CCCC1` [Compound 288] stands 1 to 10 µM. As to `O=C(c1cc(NCc2ccc(C(F)(F)F)cc2)nc2ccc(CCc3cccc(C(F)(F)F)c3)cc12)N1CCC[C@H]1CN1CCCC1` [Compound 289], the IC50 (class symbols) was 1 to 10 µM. Still for that read-out and setting: under `O=C(c1cc(NCc2ccc(C(F)(F)F)cc2)nc2ccc(/C=C/c3ccccc3)cc12)N1CCC[C@H]1CN1CCCC1` [Compound 290] stands 1 to 10 µM; under `CCCCc1ccc2nc(NCc3ccc(C(F)(F)F)cc3)cc(C(=O)N3CCC[C@H]3CN3CCCC3)c2c1` [Compound 291], over 10 µM; under `O=C(c1cc(NCc2ccc(C(F)(F)F)cc2)nc2ccc(-c3cc(Cl)cc(Cl)c3)cc12)N1CCC[C@H]1CN1CCCC1` [Compound 292], under 1 µM. Still for that read-out and setting: with `O=C(c1cc(NCc2ccc(C(F)(F)F)cc2)nc2ccc(-c3cccs3)cc12)N1CCC[C@H]1CN1CCCC1` [Compound 293] the figure was 1 to 10 µM.

In the case of `O=C(c1cc(NCc2ccc(C(F)(F)F)cc2)nc2ccc(-c3ccsc3)cc12)N1CCC[C@H]1CN1CCCC1` [Compound 294], under “class symbols”, the IC50 is under 1 µM. For the compound `O=C(c1cc(NCc2ccc(C(F)(F)F)cc2)nc2ccc(-c3cccc(C(F)(F)F)c3)cc12)N1CCC[C@H]1CN1CCCC1` [Compound 295], the IC50 (class symbols) was 1 to 10 µM. The same measure, in the same setting: under `O=C(c1cc(NCc2ccc(C(F)(F)F)cc2)nc2ccc(-c3ccc(C(F)(F)F)cc3)cc12)N1CCC[C@H]1CN1CCCC1` [Compound 296] stands 1 to 10 µM. The same measure, in the same setting: under `CC(=O)Nc1cccc(-c2ccc3nc(NCc4ccc(C(F)(F)F)cc4)cc(C(=O)N4CCC[C@H]4CN4CCCC4)c3c2)c1` [Compound 297] stands over 10 µM. On to `O=C(c1cc(NCc2ccc(C(F)(F)F)cc2)nc2ccc(-c3cc4ccccc4s3)cc12)N1CCC[C@H]1CN1CCCC1` [Compound 298], for which the IC50 (class symbols) lay in the range of 1 to 10 µM. Still for that read-out and setting: under `CC(=O)c1ccc(-c2ccc3nc(NCc4ccc(C(F)(F)F)cc4)cc(C(=O)N4CCC[C@H]4CN4CCCC4)c3c2)s1` [Compound 299] stands under 1 µM. The same measure, in the same setting: with `O=C(c1cc(NCc2ccc(C(F)(F)F)cc2)nc2ccc(-c3csc4ccccc34)cc12)N1CCC[C@H]1CN1CCCC1` [Compound 300] the figure was under 1 µM. `Cc1ccc(-c2ccc3nc(NCc4ccc(C(F)(F)F)cc4)cc(C(=O)N4CCC[C@H]4CN4CCCC4)c3c2)s1` [Compound 301]: the IC50 (numeric value) was 1.78 µM. Regarding `O=C(c1cc(NCc2ccc(C(F)(F)F)cc2)nc2ccc(-c3ccc(F)cc3)cc12)N1CCC[C@H]1CN1CCCC1` [Compound 302], the IC50 (class symbols) was under 1 µM. Consider `O=C(c1cc(NCc2ccc(C(F)(F)F)cc2)nc2ccc(-c3ccc(F)c(Cl)c3)cc12)N1CCC[C@H]1CN1CCCC1` [Compound 303], for which, where the note is “class symbols”, the IC50 was under 1 µM. The same measure, in the same setting: under `O=C(c1cc(NCc2ccc(C(F)(F)F)cc2)nc2ccc(-c3cccc(F)c3)cc12)N1CCC[C@H]1CN1CCCC1` [Compound 304] stands 1 to 10 µM; under `O=C(c1cc(NCc2ccc(C(F)(F)F)cc2)nc2ccc(-c3ccc(Cl)cc3)cc12)N1CCC[C@H]1CN1CCCC1` [Compound 305], under 1 µM. Turning to `O=C(c1cc(NCc2ccc(C(F)(F)F)cc2)nc2ccc(-c3cccc(Cl)c3)cc12)N1CCC[C@H]1CN1CCCC1` [Compound 306], the IC50 (class symbols) is under 1 µM.

As to `O=C(c1cc(NCc2ccc(C(F)(F)F)cc2)nc2ccc(-c3ccc(F)cc3F)cc12)N1CCC[C@H]1CN1CCCC1` [Compound 307], the concentration for half-maximal inhibition (IC50) (class symbols) was 1 to 10 µM.

In the case of `O=C(c1cc(NCc2ccc(C(F)(F)F)cc2)nc2ccc(-c3ccccc3F)cc12)N1CCC[C@H]1CN1CCCC1` [Compound 308], the IC50 (class symbols) was in the range of 1 to 10 µM. Take `O=C(c1cc(NCc2ccc(C(F)(F)F)cc2)nc2ccc(-c3ccc(OC(F)(F)F)cc3)cc12)N1CCC[C@H]1CN1CCCC1` [Compound 309]: where the note is “class symbols”, the IC50 was 1 to 10 µM. As to `O=C(c1cc(NCc2ccc(C(F)(F)F)cc2)nc2ccc(-c3cccc(OC(F)(F)F)c3)cc12)N1CCC[C@H]1CN1CCCC1` [Compound 310], for the setting “class symbols”, the IC50 was under 1 µM.

As to `CS(=O)(=O)c1ccc(CNc2cc(C(=O)N3CCC[C@H]3CN3CCCC3)c3cc(-c4ccc(C#N)cc4)ccc3n2)cc1` [Compound 311], the 50% inhibitory concentration (IC50) (class symbols) lay in the range of 1 to 10 µM.

For the compound `N#Cc1ccc(-c2ccc3nc(NCc4c(F)cccc4F)cc(C(=O)N4CCC[C@H]4CN4CCCC4)c3c2)cc1` [Compound 312], the IC50 (class symbols) was in the range of 1 to 10 µM.

On to `COc1ccccc1CCNc1cc(C(=O)N2CCC[C@H]2CN2CCCC2)c2cc(-c3ccc(C#N)cc3)ccc2n1` [Compound 313], for which the IC50 (class symbols) was in the range of 1 to 10 µM. For the compound `N#Cc1ccc(-c2ccc3nc(NC(CO)Cc4ccccc4)cc(C(=O)N4CCC[C@H]4CN4CCCC4)c3c2)cc1` (stereo partly drawn) [Compound 315], for the setting “class symbols”, the IC50 was under 1 µM. For `N#Cc1ccc(-c2ccc3nc(N[C@H](CO)Cc4ccccc4)cc(C(=O)N4CCC[C@H]4CN4CCCC4)c3c2)cc1` [Compound 316], the IC50 (class symbols) was 1 to 10 µM. Still for that read-out and setting: under `C[C@H](Nc1cc(C(=O)N2CCC[C@H]2CN2CCCC2)c2cc(-c3ccc(C#N)cc3)ccc2n1)[C@H](O)c1ccccc1` [Compound 317] stands under 1 µM; under `N#Cc1ccc(-c2ccc3nc(NCc4ccc5c(c4)CCO5)cc(C(=O)N4CCC[C@H]4CN4CCCC4)c3c2)cc1` [Compound 318], 1 to 10 µM; under `N#Cc1ccc(-c2ccc3nc(NCc4cccc(OC(F)F)c4)cc(C(=O)N4CCC[C@H]4CN4CCCC4)c3c2)cc1` [Compound 319], under 1 µM.

For `N#Cc1ccc(-c2ccc3nc(NCCc4cccc(O)c4)cc(C(=O)N4CCC[C@H]4CN4CCCC4)c3c2)cc1` [Compound 320], under “class symbols”, the IC50 is 1 to 10 µM.

`N#Cc1ccc(-c2ccc3nc(NCc4cccc(O)c4)cc(C(=O)N4CCC[C@H]4CN4CCCC4)c3c2)cc1` [Compound 321]: the IC50 (class symbols) is 1 to 10 µM.

As for `O=C(c1cc(Sc2ccc(C(F)(F)F)cc2)nc2ccc(-c3ccc4c(c3)OCO4)cc12)N1CCC[C@H]1CN1CCCC1` [Compound 323], the IC50 (class symbols) is over 10 µM. Still for that read-out and setting: with `O=C(c1cc(Sc2cccc(C(F)(F)F)c2)nc2ccc(-c3ccc4c(c3)OCO4)cc12)N1CCC[C@H]1CN1CCCC1` [Compound 324] the figure was under 1 µM; with `O=C(c1cc(Sc2ccc(OC(F)(F)F)cc2)nc2ccc(-c3ccc4c(c3)OCO4)cc12)N1CCC[C@H]1CN1CCCC1` [Compound 325], under 1 µM. On the same count and under the same terms, with `O=C(c1cc(SCc2ccc(Cl)cc2)nc2ccc(-c3ccc4c(c3)OCO4)cc12)N1CCC[C@H]1CN1CCCC1` [Compound 326] the figure was under 1 µM; with `O=C(c1cc(N2CCC[C@H]2CO)nc2ccc(-c3ccc4c(c3)OCO4)cc12)N1CCC[C@H]1CN1CCCC1` [Compound 327], over 10 µM.

As for `COC[C@H]1CCCN1c1cc(C(=O)N2CCC[C@H]2CN2CCCC2)c2cc(-c3ccc4c(c3)OCO4)ccc2n1` [Compound 328], where the note is “class symbols”, the IC50 lay in the range of 1 to 10 µM. As to `COC[C@@H]1CCCN1c1cc(C(=O)N2CCC[C@H]2CN2CCCC2)c2cc(-c3ccc4c(c3)OCO4)ccc2n1` [Compound 329], the IC50 (class symbols) was over 10 µM.

In general, IC50 refers to the concentration that gives 50% inhibition.

The values above are taken from patent US20080119515A1, “Heterocyclic Kinase Inhibitors: Methods of Use and Synthesis” (priority 2003, published 2008).
